# Results reported in US11660275B2, “Epilepsy treatment agent” (Eisai R&D Management Co., Ltd., priority 2018, dated 2023).
# Experiments:
# [1] = tested on: mouse sound-induced convulsion model; test: Mouse sound-induced convulsion model (tonic convulsion, hindlimb extension); type: in vivo; conditions: 0.5 h, DBA/2 JJcl mice, oral, sound stimulation 30 minutes after administration, % Tonic convulsion, regression analysis
# Protocol: A mouse sound-induced convulsion model test was carried out to confirm the suppressive effect on convulsions. Tonic convulsion induced by sound stimulation is used as the index for evaluation in this model (European Journal of Pharmacology, 222, p 193-203(1992)).
# Three-week-old male DBA/2 JJcl mice (Clea Japan, Inc.) were provided for the test (n=5 for each treatment, total 2 times). Tonic convulsion induced by sound stimulation was used as the indicator for evaluation (see aforementioned publication).
# Compound (Ia) and/or compound (11) was dissolved in a 0.4% methyl cellulose/5% cremophor/5% IN hydrochloric acid/10% dimethyl sulfoxide solution for an administered dose of 20 mL/kg each to prepare samples which were orally administered. A mixed solution without the compound (vehicle) was used as a negative control. Sound stimulation (11 kHz, 115 dB, duration: 30 sec) was carried out 30 minutes after administration of the samples, to induce convulsions. Immediately after cessation of the sound stimulation, tonic convulsion was evaluated by observing the presence or absence of hindlimb extension. […]
# mouse kindling models = conditions: PTL 1; cited from earlier work
Compound,ED50 [1] [mg/kg],effect on seizure severity (score) (mouse kindling models)
"N#Cc1ccccc1-c1cc(-c2ccccn2)cn(-c2ccccc2)c1=O [compound (II), 3-(2-cyanophenyl)-5-(2-pyridyl)-1-phenyl-1,2-dihydropyridin-2-one, reference compound]",0.33,–
"NS(=O)(=O)N[C@H]1c2c(F)cc(F)cc2CC1(F)F [compound (Ia), N-[(1S)-2,2,5,7-tetrafluoro-2,3-dihydro-1H-inden-1-yl]sulfamide]",53,ameliorating effect
"NS(=O)(=O)N[C@H]1c2c(F)ccc(F)c2CC1(F)F [compound (Ib), N-[(1S)-2,2,4,7-tetrafluoro-2,3-dihydro-1H-inden-1-yl]sulfamide]",–,ameliorating effect
"NS(=O)(=O)N[C@H]1c2c(F)c(F)cc(F)c2CC1(F)F [compound (Ic), (+)-N-(2,2,4,6,7-pentafluoro-2,3-dihydro-1H-inden-1-yl)sulfamide]",–,ameliorating effect
